Measured values reported in patent US20100255086A1, “Method for oral mucosal absorption of acetyl salycylic acid” (priority 2009, published 2010).

What was measured:
[1] = long-term treatment; cited from earlier work
[2] = cited from earlier work
[3] = cited from earlier work; remark: listed apart in the source

- Buccal absorption (normal buccal pH, no buffer added): 5%
- absorbed (buccal) (pH of 2.5, buffer solution added): 70%
SMILES: CC(=O)Oc1ccccc1C(=O)O [aspirin, acetyl salicylic acid]
- severe gastrointestinal complication [1]: up to 30%
- acetyl salicylic acid reaching the stomach inactivated through deacetylation [2]: At least thirty two
- solubility in water [3]: does not dissolve in water
